# PMC5715595 (British Journal of Pharmacology, 2017)
# Where two headings read alike, the source gives them in different places.
# Legend:
# [1] = test system: rabbit Purkinje fibres; test: Dofetilide-induced early after-depolarizations and triggered activity in rabbit Purkinje fibres; format: cell-based
# Experimental: Following a lethal dose of pentobarbital, the hearts of male New Zealand rabbits were immediately excised and immersed in a modified Tyrode solution maintained at room temperature and previously saturated with O2/CO2 (95%/5%). A piece of ventricle containing free running Purkinje fibres was fixed to the silastic bottom of an organ bath perfused with the same solution maintained at 37°C for 30 min. The preparation was then superfused with the modified Tyrode solution and stimulated for 30 min at 2 Hz and then at 1 Hz (2 ms stimulus at twice threshold). […] After a stabilization period of at least 1 h, action potentials typical for Purkinje fibres were recorded. Action potential reproducibility and stability were confirmed during a further 20 min stabilization period. […] Each was applied for 20 min to enable steady state to be reached. In addition, the emergence of early after‐depolarizations (EADs), favoured by calcium loading during the late phase 2 of the prolonged action potential, is recognized as a better marker of pro‐arrhythmic potential than APD prolongation alone.
# [2] = test system: hERG; parameters: method as in Jonker et al., 2005; details: simulation study; 95% CI: 12–32 ms; ref Jonker et al., 2005; cited from earlier work
# [3] = target: T1, KV1.5 (Homo sapiens, UniProt P22460); test: Whole-cell patch clamp on KV1.5 (IKur); format: cell-based; details: read-out: Reference compound % inhibition
# T1 construct: expressed in transfected cells
# Experimental: (§1) and CiPA Initiative Studies
# (§2) =============================================================
# (§3) In vitro studies on other ion channels […]
# (§4) through NaV1.5, KV4.3, KV7.1/mink, Kir2.1, KV1.5, CaV1.2 and CaV3.2 channels.
# (§5) 35-mm dish culture in the conditions mentioned in standard cell culture conditions. Experiments were performed with a cell density enabling isolated cells for patch clamping. Cells were continuously superfused with extracellular medium (1-2 mL∙minute-1) at room temperature.
# (§6) D-glucose 10, HEPES 10 and the final pH adjusted to 7.4±0.02 with NaOH for recording NaV1.5, KV4.3, KV7.1/mink, Kir2.1, KV1.5 and CaV3.2 currents. It was (in mM): NaCl 110, KCl 4, BaCl2 20, MgCl2 1, D-glucose 20, HEPES 10 and the final pH adjusted to 7.4 ± 0.02 with NaOH for recording the CaV1.2 current. Compositions of the intracellular solution to fill the pipette are […]
# (§7) Composition of intracellular solutions used to fill pipette to record currents through NaV1.5, KV4.3, KV7.1/mink, Kir2.1, KV1.5, CaV1.2 and CaV3.2 channels
# (§8) Solution to fill the pipette (mM)
# (§9) Creatine-phospho kinase 50 U∙mL-1
# (§10) After formation of a Gigaohm seal between the patch electrodes and individual cells (pipette resistance range: 2.0 MΩ - 7.0 MΩ; seal resistance range: > 1 GΩ) the cell membrane across the pipette tip was ruptured to assure electrical access to the cell interior (whole-cell patch-configuration). In case the quality of the seal was poor, the process of seal formation was repeated with a different cell and a new pipette. As soon as a stable seal was established outward tail currents were measured upon pulses described in the Table S2. If current density was judged to be too low for measurement, another cell was recorded. […]
# (§11) voltage stimulation protocol indicated in the next table continuously run until the steady-state level of block was reached.
# (§12) Stimulation conditions used to record currents through NaV1.5, KV4.3, KV7.1/mink, Kir2.1, KV1.5, CaV1.2 and CaV3.2 channels
# (§13) Ion channel Holding potential Pulse / duration Frequency Reference compound […]
# (§14) (resting / fast / slow sweeps at one (10 mM) inactivated concentration)
# [4] = test system: anaesthetized rabbits
# Experimental: All the other experimental groups were 100% female. Animals were anaesthetized with sodium pentobarbital (45–60 mg·kg^−1 i.v.), maintained on a heated pad and mechanically ventilated with room air. […] A fluid‐filled catheter was inserted into the carotid artery to measure systemic arterial blood pressure and for blood sampling. A venous catheter was implanted into the jugular vein for infusion of drugs. Standard surface ECG leads I, II and III were monitored continuously to measure ECG intervals and the occurrence of ventricular tachyarrhythmia. Measurements of arterial blood pressures were calculated over 30 s duration at baseline and every 5 min. […] Then, for all determinations, the means of 10–30 consecutive sinus beats were automatically calculated at each time point (i.e. at the end of the stabilization period and then every 5 until 60 min after starting drug infusion) or until the occurrence of premature ventricular beats. Parameters recorded were systolic, diastolic and mean arterial blood pressure (mmHg), heart rate (beats·min^‐1 calculated from RR interval) as well as PR, QRS and QT/QTU intervals (ms), amplitudes of T‐wave and U‐wave (mV) and rhythm disturbances retrieved from ECG signals. […] Arrhythmia were scored according to the following scale: 0 being no arrhythmia, 1 being premature beats, 2 being auriculo‐ventricular blocks, 3 being ventricular tachycardia and 4 being TdP; and scores correspond to the average of maximal life‐threatening arrhythmias recorded during the experiment. […] Haemodynamic and ECG recordings were monitored continuously over 60 min following the start of infusion.
# [5] = test system: methoxamine‐sensitized rabbits; test: in vivo; parameters: species or system rabbit; details: clofilium 20.5 μg·kg^−1·min^−1
# Experimental: All the other experimental groups were 100% female.
# The anaesthetized methoxamine‐sensitized rabbit model of TdP is frequently used to study torsadogenic potential of drugs (Carlsson et al., 1990). Briefly, female animals were pre‐sensitized with i.v. infusion of methoxamine, an α1‐adrenoceptor agonist, delivered at 15 μg·kg^−1·min^−1 (6 mL·h^−1) over 70 min.
# [6] = target: T2, KV7.1/mink (Homo sapiens, UniProt P51787); test: Whole-cell patch clamp on KV7.1/mink (IKs); format: cell-based; details: read-out: Reference compound % inhibition
# T2 construct: expressed in transfected cells
# Experimental: as §1, §2, §3, §4, §5, §6, §7, §8, §9, §10, §11, §12, §13, §14
# [7] = test system: late sodium current; parameters: method as in Johannesen et al., 2016; details: at the concentrations that caused approximately 20 ms shortening of QTc; ref Johannesen et al., 2016; cited from earlier work
# [8] = test system: hERG channel; details: cited from earlier work
# [9] = in vivo; cited from earlier work
# [10] = test system: late INa; details: read-out: IC50 for late INa; ref Gao et al., 2013; cited from earlier work
# [11] = test system: fast INa; details: read-out: IC50 for fast INa; ref Gao et al., 2013; cited from earlier work
# [12] = test system: canine Purkinje fibres; parameters: method as in Fazekas et al., 1998; details: mexiletine (10 mM) added after erythromycin, ref Fazekas et al., 1998; cited from earlier work
# [13] = test system: late INa; details: at clinical Cmax; ref Vicente et al., 2015; cited from earlier work
# [14] = target: T3, KV4.3 (Homo sapiens, UniProt Q9UK17); test: Whole-cell patch clamp on KV4.3 (Ito); format: cell-based; details: read-out: Reference compound % inhibition
# T3 construct: expressed in transfected cells
# T3 sequence (Q9UK17 1-655): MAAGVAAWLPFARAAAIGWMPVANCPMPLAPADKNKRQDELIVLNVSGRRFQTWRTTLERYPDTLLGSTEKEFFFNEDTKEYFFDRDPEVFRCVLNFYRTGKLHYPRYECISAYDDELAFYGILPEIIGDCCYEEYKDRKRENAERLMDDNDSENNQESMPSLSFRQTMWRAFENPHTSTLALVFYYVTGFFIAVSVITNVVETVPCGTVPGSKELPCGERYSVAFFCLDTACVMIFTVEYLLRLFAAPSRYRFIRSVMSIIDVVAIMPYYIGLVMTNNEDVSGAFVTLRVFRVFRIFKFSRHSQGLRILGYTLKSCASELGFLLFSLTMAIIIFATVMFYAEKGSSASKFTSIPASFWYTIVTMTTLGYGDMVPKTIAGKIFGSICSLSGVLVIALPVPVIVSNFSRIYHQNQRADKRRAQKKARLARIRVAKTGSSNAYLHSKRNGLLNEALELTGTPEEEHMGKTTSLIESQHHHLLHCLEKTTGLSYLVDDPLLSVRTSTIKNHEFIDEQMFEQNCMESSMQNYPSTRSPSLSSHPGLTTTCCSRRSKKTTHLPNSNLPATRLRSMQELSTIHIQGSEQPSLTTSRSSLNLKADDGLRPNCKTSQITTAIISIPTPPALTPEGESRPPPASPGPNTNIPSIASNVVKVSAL
# Experimental: as §1, §2, §3, §4, §5, §6, §7, §8, §9, §10, §11, §12, §13, §14
# [15] = target: T4, CaV3.2 (Homo sapiens, UniProt O95180); test: Whole-cell patch clamp on CaV3.2 (ICaT); format: cell-based; details: read-out: Reference compound % inhibition
# T4 construct: expressed in transfected cells
# Experimental: as §1, §2, §3, §4, §5, §6, §7, §8, §9, §10, §11, §12, §13, §14
# [16] = target: T5, Kir2.1 (Homo sapiens, UniProt P63252); test: Whole-cell patch clamp on Kir2.1 (IK1); format: cell-based; details: Kir2.1 IK1; 10 μM
# T5 construct: expressed in transfected cells
# T5 sequence (P63252 1-427): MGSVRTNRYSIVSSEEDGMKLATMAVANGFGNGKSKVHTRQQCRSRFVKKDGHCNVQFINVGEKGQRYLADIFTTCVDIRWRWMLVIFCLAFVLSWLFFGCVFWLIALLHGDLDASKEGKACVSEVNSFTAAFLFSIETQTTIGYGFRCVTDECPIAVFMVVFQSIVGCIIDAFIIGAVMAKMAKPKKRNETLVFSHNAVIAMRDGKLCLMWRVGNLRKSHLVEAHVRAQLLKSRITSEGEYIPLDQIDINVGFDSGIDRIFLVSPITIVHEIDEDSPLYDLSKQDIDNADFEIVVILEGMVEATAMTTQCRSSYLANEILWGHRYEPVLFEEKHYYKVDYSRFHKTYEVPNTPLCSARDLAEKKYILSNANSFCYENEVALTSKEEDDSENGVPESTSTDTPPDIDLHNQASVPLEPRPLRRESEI
# Experimental: as §1, §2, §3, §4, §5, §6, §7, §8, §9, §10, §11, §12, §13, §14
# [17] = test system: hERG channel; details: cited from earlier work; remark: listed apart in the source
# [18] = test system: late INa current; parameters: method as in Obejero‐Paz et al., 2015; details: ref Obejero‐Paz et al., 2015; cited from earlier work
# T4 sequence (O95180 whole entry): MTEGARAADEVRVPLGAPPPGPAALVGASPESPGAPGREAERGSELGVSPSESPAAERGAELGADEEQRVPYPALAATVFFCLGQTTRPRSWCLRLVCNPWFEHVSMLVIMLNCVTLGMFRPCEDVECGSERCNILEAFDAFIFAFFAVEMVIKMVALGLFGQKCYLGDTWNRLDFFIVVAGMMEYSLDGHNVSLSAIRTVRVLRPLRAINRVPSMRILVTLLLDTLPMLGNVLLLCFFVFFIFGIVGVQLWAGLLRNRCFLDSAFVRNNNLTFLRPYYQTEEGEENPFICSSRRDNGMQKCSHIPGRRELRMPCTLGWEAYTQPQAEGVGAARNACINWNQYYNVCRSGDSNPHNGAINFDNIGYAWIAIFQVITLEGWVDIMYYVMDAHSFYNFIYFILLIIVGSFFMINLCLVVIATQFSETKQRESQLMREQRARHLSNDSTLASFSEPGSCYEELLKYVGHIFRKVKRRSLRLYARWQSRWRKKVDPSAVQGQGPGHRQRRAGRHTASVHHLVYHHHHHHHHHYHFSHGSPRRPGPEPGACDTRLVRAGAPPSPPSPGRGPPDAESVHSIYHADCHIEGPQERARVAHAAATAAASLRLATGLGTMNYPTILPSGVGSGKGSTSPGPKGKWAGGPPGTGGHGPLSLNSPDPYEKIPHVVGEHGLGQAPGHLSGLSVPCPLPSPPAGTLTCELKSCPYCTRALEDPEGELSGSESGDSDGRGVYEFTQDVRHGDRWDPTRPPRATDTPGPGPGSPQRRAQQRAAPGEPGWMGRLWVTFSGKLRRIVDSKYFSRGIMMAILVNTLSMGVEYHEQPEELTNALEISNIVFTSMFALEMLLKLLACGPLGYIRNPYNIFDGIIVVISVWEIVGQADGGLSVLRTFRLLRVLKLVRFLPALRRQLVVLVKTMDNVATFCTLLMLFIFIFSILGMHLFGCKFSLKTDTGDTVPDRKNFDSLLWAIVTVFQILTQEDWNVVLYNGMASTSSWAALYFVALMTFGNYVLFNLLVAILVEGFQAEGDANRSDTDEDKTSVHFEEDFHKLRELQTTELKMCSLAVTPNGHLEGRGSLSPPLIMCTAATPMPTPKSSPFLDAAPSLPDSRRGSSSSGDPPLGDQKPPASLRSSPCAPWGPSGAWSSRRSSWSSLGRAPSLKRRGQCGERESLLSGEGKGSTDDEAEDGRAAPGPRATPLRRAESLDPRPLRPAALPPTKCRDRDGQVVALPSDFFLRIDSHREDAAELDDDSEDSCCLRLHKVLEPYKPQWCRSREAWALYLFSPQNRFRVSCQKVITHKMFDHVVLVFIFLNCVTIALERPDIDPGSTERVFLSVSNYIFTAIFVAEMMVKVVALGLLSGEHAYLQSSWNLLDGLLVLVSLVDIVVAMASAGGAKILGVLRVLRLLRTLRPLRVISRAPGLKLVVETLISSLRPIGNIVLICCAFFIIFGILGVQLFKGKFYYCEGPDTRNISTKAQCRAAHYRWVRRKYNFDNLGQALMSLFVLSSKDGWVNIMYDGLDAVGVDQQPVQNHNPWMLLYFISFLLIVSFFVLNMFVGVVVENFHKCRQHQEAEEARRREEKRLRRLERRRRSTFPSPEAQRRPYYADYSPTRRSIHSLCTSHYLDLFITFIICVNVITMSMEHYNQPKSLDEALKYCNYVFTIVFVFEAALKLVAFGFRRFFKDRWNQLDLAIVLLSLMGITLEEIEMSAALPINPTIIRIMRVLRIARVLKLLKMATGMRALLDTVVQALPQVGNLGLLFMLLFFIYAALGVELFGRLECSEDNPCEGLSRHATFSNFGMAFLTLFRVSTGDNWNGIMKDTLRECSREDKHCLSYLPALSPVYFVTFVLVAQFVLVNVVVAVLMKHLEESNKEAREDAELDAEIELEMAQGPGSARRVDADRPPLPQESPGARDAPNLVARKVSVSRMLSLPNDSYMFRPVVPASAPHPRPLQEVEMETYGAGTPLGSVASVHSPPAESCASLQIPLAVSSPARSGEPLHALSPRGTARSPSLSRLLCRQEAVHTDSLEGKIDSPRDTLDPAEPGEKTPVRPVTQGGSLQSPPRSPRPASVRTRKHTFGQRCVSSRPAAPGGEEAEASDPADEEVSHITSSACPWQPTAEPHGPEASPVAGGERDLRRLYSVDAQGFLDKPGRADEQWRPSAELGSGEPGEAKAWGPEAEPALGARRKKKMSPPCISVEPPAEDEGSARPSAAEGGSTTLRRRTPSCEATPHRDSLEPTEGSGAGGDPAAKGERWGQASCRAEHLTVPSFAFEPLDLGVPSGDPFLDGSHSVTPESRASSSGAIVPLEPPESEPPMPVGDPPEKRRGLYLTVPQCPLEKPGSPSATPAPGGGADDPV
# T1 sequence (P22460 whole entry): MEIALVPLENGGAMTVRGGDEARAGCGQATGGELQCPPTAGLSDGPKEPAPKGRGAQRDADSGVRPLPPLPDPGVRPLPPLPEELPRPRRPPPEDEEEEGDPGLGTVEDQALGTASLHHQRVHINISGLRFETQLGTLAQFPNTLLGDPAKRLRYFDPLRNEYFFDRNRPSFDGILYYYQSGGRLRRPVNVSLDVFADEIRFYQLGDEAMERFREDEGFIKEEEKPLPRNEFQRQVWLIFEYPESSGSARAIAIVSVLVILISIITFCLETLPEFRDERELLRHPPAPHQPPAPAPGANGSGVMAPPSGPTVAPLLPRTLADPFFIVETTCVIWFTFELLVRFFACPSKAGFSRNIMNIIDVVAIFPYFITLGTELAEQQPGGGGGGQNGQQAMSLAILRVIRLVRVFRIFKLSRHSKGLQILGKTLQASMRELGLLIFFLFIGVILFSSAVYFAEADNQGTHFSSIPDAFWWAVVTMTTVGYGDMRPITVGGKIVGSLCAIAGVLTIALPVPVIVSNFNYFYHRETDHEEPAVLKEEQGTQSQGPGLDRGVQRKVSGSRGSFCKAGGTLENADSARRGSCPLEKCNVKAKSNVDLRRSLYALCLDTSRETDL
smiles,measurement,setting,value
"CN(CCOc1ccc(NS(C)(=O)=O)cc1)CCc1ccc(NS(C)(=O)=O)cc1 [dofetilide, reference compound]",induction of EADs or triggered activity,[1]; 0.1 μM,all 10 preparations
same,APD90,"[1]; dofetilide 0.1 μM for 35 min, 0.25 Hz, trace of Figure 3B",593 ms
same,QT prolongation corresponding to a 10% hERG blockade,[2],20 ms
"CC(C)(C)c1ccc(C(O)CCCN2CCC(C(O)(c3ccccc3)c3ccccc3)CC2)cc1 (centres unmarked) [Terfenadine, reference compound]",inhibition at 10 µM,[3],81%
"CCCCCCC[N+](CC)(CC)CCCCc1ccc(Cl)cc1 [clofilium, reference compound]",QTc interval (ms) (mean ± SEM),"[4]; both, rabbit, in vivo",152 ± 2 ms
same,QTc interval (ms) (mean ± SEM),"[4]; both, rabbit, in vivo, 20 min",157 ± 3 ms
same,QTc interval (ms) (mean ± SEM),"[4]; both, rabbit, in vivo, 30 min",168 ± 5 ms
same,QTc interval (ms) (mean ± SEM),"[4]; both, rabbit, in vivo, 40 min",172 ± 8 ms
same,prolongation of QTc interval vs. baseline,"[4]; both, rabbit, in vivo, iv, 60 min",+13 ± 5%
same,TdP occurrence,"[4]; clofilium up to 1 mg·kg^−1, n = 3/4",75%
same,ventricular tachycardia incidence,"[4]; clofilium up to 1 mg·kg^−1, n = 4/4",100%
same,increase in UTA ratio,[5],90%
"OC(c1cc(C(F)(F)F)nc2c(C(F)(F)F)cccc12)C1CCCCN1 (centres unmarked) [Mefloquine, reference compound]",inhibition at 10 µM,[6],61%
Cc1cccc(C)c1OCC(C)N (centres unmarked) [mexiletine],block of late sodium current,[7],about 20%
same,IC50,[8],3.7 ± 0.7 µM
same,therapeutic concentrations,[9],3.4 to 9.5 µM
same,IC50,[10],17.6 ± 1.9 µM
same,IC50,[11],34.6 ± 2.9 µM
same,disappearance of erythromycin-induced EADs (preparations),[12],7/9
COc1ccccc1OCC(O)CN1CCN(CC(=O)Nc2c(C)cccc2C)CC1 (centres unmarked) [ranolazine],block of late INa,[13],21%
"CN(C)[C@@H](CCOc1cccc2ccccc12)c1ccccc1 [Dapoxetine, reference compound]",inhibition at 30 µM,[14],74%
CCN(CC)CC(=O)Nc1c(C)cccc1C [Lidocaine],block of late sodium current,[7],about 20%
"COCC(=O)O[C@]1(CCN(C)CCCc2nc3ccccc3[nH]2)CCc2cc(F)ccc2[C@@H]1C(C)C [Mibefradil, reference compound]",inhibition at 1 µM,[15],83%
"COc1ccc(CNCc2cccc3ccccc23)cc1 [ML 133, reference compound]",Reference compound % inhibition,[16],ML 133 (10 μM): 96%
Fc1ccc(C(OCCN2CCN(CCCc3ccccc3)CC2)c2ccc(F)cc2)cc1 [vanoxerine],IC50,[17],[…]
same,IC50,[18],85.2 nM
